The conditions of this series: Liquid, Ebulliometric method (Recirculating still).

Numbers after ± are expanded uncertainties.

In the case of `CCCCOC(C)=O` [butyl ethanoate], the “vapor or sublimation pressure” value is, setting by setting: (361.65 K) 29.77 ± 0.34 kPa; (381.35 K) 58.85 ± 0.79 kPa; (394.25 K) 87.65 ± 1.3 kPa.
Take `C1CCCCC1` [cyclohexane]: the “vapor or sublimation pressure” value reads like this: (317.95 K) 29.77 ± 0.34 kPa; (336.85 K) 58.85 ± 0.77 kPa; (349.15 K) 87.65 ± 1.2 kPa.

As usually defined, the vapor or sublimation pressure is the pressure of vapour in equilibrium with the condensed phase.

The record behind these values is the NIST ThermoML archive (doi:10.1021/je3005408).
